Reference: patent publication US6600057B2, “Matrix metalloproteinase inhibitors” (Kimberly-Clark Worldwide, Inc., priority 2000, dated 2003)

Target: MMP-9 (Homo sapiens, UniProt P14780)
Test: Fluorometric assay of MMP-9 inhibition (cleavage of a fluorogenic peptide substrate)
Format: biochemical
Details: incubated 30 minutes at room temperature
Protocol: The second assay utilized the technique of fluorescence resonance energy transfer (FRET). The substrate peptide (Calbiochem) comprised seven amino acids coupled to a carboxyl terminal dinitrophenyl acceptor, and an amino terminal 2-aminobenzo-anthraniloyl (Abz) moiety donor. Cleavage of this substrate by MMP-9 results in the liberation of a fluorescent product (365 nm excitation, 450 nm emission). […] MMP at a concentration of 0.5 μM was mixed with varying amounts of compound and incubated at 25° C. for 10 minutes in order to effect binding. The protein mixture was added to the peptide substrate, and was quickly mixed. Fluorescence intensity as a function of time was measured with a Dynex MFX fluorescence microtiter plate reader. Fluorescence intensity was related back to moles of peptide cleaved by producing a standard curve with an Abz containing non-FRET peptide. Inhibitory constants were derived from the curves as above. (Segel, IH. (1993) Enzyme Kinetics: Behavior and analysis of rapid equilibrium and steady-state enzyme systems. Wiley Classics Library, John Wiley and Sons, Inc. New York.)
The inhibition of MMP-9 by AQCA was measured by fluorometric assay. The fluorometric assay measures the cleavage of a fluorogenic peptide substrate (excitation wavelength 355 nm, emission wavelength 455 nm). MMP-9 is incubated with 0 mM AQCA (open circles), 1 mM AQCA (closed circles); or 2 mM AQCA (closed squares) for 30 minutes at room temperature. Fluorescence is measured at the times (in minutes) indicated.
Inhibition of MMP-9. Fluorometric assay which measures the cleavage of a fluorogenic peptide substrate (excitation wavelength 355 nm, emission wavelength 455 nm). […] Fluorescence is measured at the times (in minutes) indicated.
The inhibition of MMP-9 by anthraquinyl-mercaptoethylamine was measured by fluorometric assay. […] Fluorescence is measured at the times (in minutes) indicated.
The inhibition of MMP-9 by anthraquinyl alanine hyroxamate was measured by fluorometric assay. […] Fluorescence is measured at the times (in minutes) indicated.

[1] = 0.25 mM compound, FIG. 3 and FIG. 4

MMP-9, sequence (P14780 94-707, species assumed): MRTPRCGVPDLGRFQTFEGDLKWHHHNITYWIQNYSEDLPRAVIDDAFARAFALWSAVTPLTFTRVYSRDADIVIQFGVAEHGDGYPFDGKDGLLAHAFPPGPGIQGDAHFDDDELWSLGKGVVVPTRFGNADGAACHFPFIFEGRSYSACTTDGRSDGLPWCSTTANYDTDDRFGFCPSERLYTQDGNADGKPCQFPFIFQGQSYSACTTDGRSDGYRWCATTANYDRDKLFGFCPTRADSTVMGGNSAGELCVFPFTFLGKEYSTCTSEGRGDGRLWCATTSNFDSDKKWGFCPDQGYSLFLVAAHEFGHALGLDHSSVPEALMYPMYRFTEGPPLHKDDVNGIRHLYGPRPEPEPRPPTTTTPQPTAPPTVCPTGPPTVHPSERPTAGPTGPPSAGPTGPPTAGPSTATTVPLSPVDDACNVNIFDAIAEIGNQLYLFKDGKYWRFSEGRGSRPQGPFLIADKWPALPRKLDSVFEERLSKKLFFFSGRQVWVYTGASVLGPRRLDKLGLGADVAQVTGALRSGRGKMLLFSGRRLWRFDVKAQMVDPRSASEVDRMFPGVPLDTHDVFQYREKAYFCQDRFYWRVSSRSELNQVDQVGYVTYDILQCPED

| Structure (SMILES) | inhibition of the enzymatic activity of MMP-9 (1 mM or 2 mM AQCA, FIG. 2) | inhibition of the enzymatic activity of MMP-9 [1] |
| --- | --- | --- |
| O=C(O)c1cc(O)c2c(c1)C(=O)c1cccc(O)c1C2=O [AQCA, 4,5-dihydroxyanthaquinone-2-carboxylic acid] | inhibited the enzymatic activity of MMP-9 in a dose dependent manner | – |
| CC(NC(=O)c1cc(O)c2c(c1)C(=O)c1cccc(O)c1C2=O)C(=O)NO (stereo not drawn) [anthraquinyl alanine hyroxamate, anthraquinyl-alanine hydroxamate] | – | inhibited the enzymatic activity of MMP-9 |
| O=C(NCCS)c1cc(O)c2c(c1)C(=O)c1cccc(O)c1C2=O [anthraquinyl mercaptoethylamine, anthraquinyl-mercaptoethyamine] | – | inhibited the enzymatic activity of MMP-9 |
